Test in all cases: NCI anticancer screen, dose series, 48 h
Assay [1] deals with 786-0 renal.
In assay [2] the test system is CCRF-CEM leukemia.
The subject of assay [3] is HCC-2998 colon.
The subject of assay [4] is HL-60(TB) leukemia.
For assay [5], the system named is HOP-62 NSCLC.
Assay [6] relates to IGROV1 ovarian.
In assay [7] the test system is MALME-3M melanoma.
Assay [8] has as its system MDA-MB-231 breast.
The test system of assay [9] is NCI-H23 lung.
Assay [10] has as its system NCI-H460 lung.
Assay [11] concerns RPMI-8226 leukemia.
Assay [12] relates to SF-268 CNS.
For assay [13], the system named is SNB-75 CNS.
Assay [14] concerns UACC-257 melanoma.
Assay [15] has as its system A549 NSCLC.
In assay [16] the test system is SK-MEL-5 melanoma.
In assay [17] the test system is SW-620 colon.

These results are taken from PubChem BioAssay (NCI).

Several values for one entry are separate records, joined by “and”; a condition that tells them apart may be missing. Equal entries are not always repeated.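 Protocol summary: plate cells (96-well), add compound at 5 concentrations, incubate 48 h, interpolate endpoints linearly. GI50 is the concentration that inhibits growth by half. TGI is the concentration that stops growth completely.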

As to `COc1ccc(OC)c2c1ccc1c(C)c3ccccc3c(C)c12`, the TGI in assay [1] was above 100 µM; in [2], above 100 µM; in [3], 45.8 µM; in assay [4] it was above 100 µM; in assay [5] it was above 100 µM; in assay [6], above 100 µM. The TGI in assay [7], in assay [8], in assay [9], in [10], in assay [11] and in assay [12] was above 100 µM throughout. In addition, the TGI in [13] and in assay [14] was above 100 µM in each case.
On to `COc1cc(/C=C/C(=O)N[C@@H]2C(=O)N3[C@@H]2SC(C)(C)[C@@H]3C(=O)O)ccc1O`, for which the TGI in assay [1], in assay [15], in [2], in [3], in assay [4] and in [5] was above 100 µM each time. The TGI in [8], in assay [9], in [10], in [11], in [12] and in [16] was above 100 µM each time. Besides, the TGI in assay [13], in assay [17] and in assay [14] was above 100 µM each time.
As to `O=C1/C(=C\c2cccc(Oc3ccccc3)c2)SC(c2ccccc2)N1Cc1ccccc1` (stereo not given), the TGI was above 100 µM in assay [1]; above 100 µM in assay [15]; 45.5 µM in assay [2]; above 100 µM in assay [3]; 78.3 µM in assay [4]; above 100 µM in assay [5]. The TGI in [7] is 57.7 µM; in assay [8] it was above 100 µM; in [9], 62.7 µM; in assay [10], above 100 µM; in assay [11] it was 57.4 µM; in [12], above 100 µM. Also, the figures for the TGI in assay [16], in [17] and in assay [14] were 28 µM, above 100 µM and 87.9 µM, respectively.
Take `COc1c(OC)c(OC)c2c(=O)c(OC)c(-c3ccc4c(c3)OCO4)oc2c1OC`: the TGI was above 100 µM in assay [1]; above 100 µM in assay [15]; above 100 µM in assay [2]; above 100 µM in assay [3]; 33.4 µM in [4]; above 100 µM in assay [5]. Further, the TGI in assay [6], in assay [7], in assay [8], in assay [9], in [10] and in [12] was above 100 µM in each case. Further, the TGI in assay [16], in assay [13], in assay [17] and in assay [14] was above 100 µM each time.
Consider `N#CC(C#N)[C@@H]1CCC=C(Sc2ccccc2)[C@H]1Sc1ccccc1`, for which the TGI was 5.64 µM in [1]; 12.7 µM in [15]; 7.26 µM in assay [2]; 6.79 µM in [3]; 18.7 µM in assay [4]; 15.6 µM in [5]. The TGI in assay [6] was found to be 13.6 µM; in assay [7] it was 13.6 µM; in assay [8], 11.6 µM; in [9], 20.9 µM; in assay [10], 13.6 µM; in [12], 14.7 µM. Also, the TGI in [16] turned out to be 18.4 µM; in assay [13] it was 17.9 µM; in assay [14], 6.48 µM.
Turning to `CC(=O)OC1OC(C2c3cccc(O)c3C(=O)c3c(O)cc(CO)cc32)C(O)C(O)C1O` (stereo not given), the TGI in assay [1] is 17 µM and 16.2 µM; in [15], 21.2 µM and 29.5 µM; in assay [2] it was 21.5 µM and 17.9 µM; in assay [3], 5.81 µM and 6.58 µM; in assay [4], 17.3 µM and 12.7 µM; in assay [5] it was 11.6 µM and 18.5 µM. The TGI in assay [6] is 20.8 µM and 21.1 µM; in assay [7], 19.5 µM and 25.3 µM; in [8], 7.54 µM and 8.88 µM; in assay [9], 11.3 µM and 13 µM; in assay [10] it was 13.4 µM and 12.4 µM; in assay [12], 21.8 µM and 33.6 µM. Moreover, the TGI in assay [16] was 4.26 µM and 4.09 µM; in assay [13], 23.5 µM and 16.3 µM; in assay [17], 10.8 µM and 19.3 µM; in assay [14] it was 32.8 µM and 33.7 µM. Further, the GI50 is 2.38 µM and 5.03 µM in assay [5]; 1.51 µM and 3.4 µM in assay [8].
As for `CN(C(=O)C12C3(C(=O)O)C4C5(C(=O)O)C3C1(C(=O)O)C5C42C(=O)O)C(C)(C)C` (stereo not given), the TGI in assay [1], in assay [15], in [2], in [3], in assay [4] and in assay [5] was above 100 µM in each case. The TGI in [6], in assay [8], in assay [9], in [10], in assay [12] and in assay [16] was above 100 µM each time. For the same compound, the TGI in assay [13], in [17] and in assay [14] was above 100 µM throughout.
As to `CN(C)c1cccc2c(S(=O)(=O)NCCCNCCN)cccc12`, the TGI in assay [1] was above 100 µM; in assay [15], above 100 µM; in assay [2], 46 µM; in [3], 62.8 µM; in assay [4] it was 43.8 µM; in assay [5] it was above 100 µM. The TGI in assay [6], in assay [7], in assay [8], in assay [9], in [10] and in assay [12] was above 100 µM each time. The TGI in [16] is 35.7 µM; in assay [13] it was 68.6 µM; in assay [17] it was above 100 µM; in assay [14], above 100 µM.
Turning to `Oc1cc(F)cc2cccnc12`, the TGI is above 100 µM in assay [1]; above 50.8 µM in assay [15]; 0.656 µM in assay [2]; above 100 µM in assay [3]; 0.454 µM in assay [4]; above 100 µM in assay [5]. For the same compound, the TGI in assay [6] is 3.99 µM; in assay [7] it was above 100 µM; in assay [8], 32.9 µM; in assay [9], 18.2 µM; in [10] it was 29.3 µM; in [11], 1.17 µM. In addition, the TGI in assay [16] is 13.4 µM; in [13] it was above 100 µM; in assay [17], above 100 µM; in assay [14] it was 4.29 µM.
